Where “and” joins values, the source holds several entries; their conditions need not be identical. Identical values can stand only once.
What was measured:
[1] = Liquid, Closed cell (Static) method
[2] = Solid-liquid equilibrium temperature; settings: 101.3 kPa; Crystal; DTA
[3] = Molar enthalpy of transition or fusion; settings: Crystal; DSC
[4] = molar heat capacity at constant pressure; settings: 101.33 kPa, Liquid, Small sample (50 mg) DSC

CC(C)(C)[O-].CC(C)(C)[O-].CC(C)(C)[O-].CC(C)(C)[O-].[Hf+4] [hafnium(IV) 2-methylpropan-2-olate]
Settings | molar heat capacity at constant pressure | vapor or sublimation pressure
[1], 280.65 K | – | 0.00169 kPa and 0.00172 kPa and 0.00174 kPa
[1], 283.15 K | – | 0.00214 kPa and 0.00217 kPa and 0.00219 kPa
[1], 285.65 K | – | 0.00279 kPa and 0.00282 kPa and 0.00284 kPa
[1], 288.15 K | – | 0.00362 kPa and 0.00364 kPa and 0.00361 kPa
[1], 290.65 K | – | 0.00443 kPa and 0.00442 kPa and 0.00444 kPa
[1], 293.15 K | – | 0.00563 kPa and 0.00565 kPa and 0.00564 kPa
[1], 295.65 K | – | 0.00722 kPa and 0.0072 kPa
[1], 298.15 K | – | 0.00874 kPa and 0.00873 kPa
[1], 300.65 K | – | 0.01111 kPa and 0.01107 kPa and 0.01104 kPa
[1], 303.15 K | – | 0.01348 kPa and 0.01346 kPa
[1], 305.67 K | – | 0.01669 kPa and 0.01664 kPa and 0.0166 kPa
[1], 308.17 K | – | 0.02071 kPa and 0.02061 kPa and 0.02059 kPa
[4], 293.83 K | 596.3 J/K/mol and 598.5 J/K/mol | –
[4], 298.94 K | 598.9 J/K/mol and 598.2 J/K/mol | –
[4], 304.04 K | 601.3 J/K/mol and 601.8 J/K/mol | –
[4], 309.15 K | 604.8 J/K/mol and 600.7 J/K/mol | –
[4], 314.25 K | 604.8 J/K/mol and 602.9 J/K/mol | –
[4], 319.35 K | 612.6 J/K/mol and 614.6 J/K/mol | –
[4], 324.46 K | 614.2 J/K/mol and 613.8 J/K/mol | –
[4], 329.56 K | 616.6 J/K/mol and 621.7 J/K/mol | –
[4], 334.66 K | 626.3 J/K/mol and 625.9 J/K/mol | –
[4], 339.77 K | 631.5 J/K/mol and 628.5 J/K/mol | –
[4], 344.88 K | 635.3 J/K/mol and 638.1 J/K/mol | –
[4], 349.98 K | 635.5 J/K/mol and 635.9 J/K/mol | –

Settings | Molar enthalpy of transition or fusion [kcal/mol] | Solid-liquid equilibrium temperature
[2] | – | 271.9 K and 271.8 K and 271.7 K
[3] | 7.72 | –

From the NIST ThermoML archive (doi:10.1016/j.fluid.2011.08.011)
